Measurements as given in ChEMBL document CHEMBL2440027, “Further SAR studies on bicyclic basic merbarone analogues as potent antiproliferative agents” (Bioorg Med Chem, 2013).

Experiments:
[1] = tested on: K562; experiment: Growth inhibition of human K562 cells after 48 hrs by sulforhodamine B assay; assay type: functional; settings: K562, 48 h
[2] = tested on: CCRF-CEM; experiment: Growth inhibition of human CCRF-CEM cells assessed as cell growth at 10 uM after 48 hrs by sulforhodamine B assay relative to control; assay type: functional; settings: read-out: Activity
[3] = tested on: PC-3; experiment: Growth inhibition of human PC3 cells assessed as cell growth at 10 uM after 48 hrs by sulforhodamine B assay relative to control; assay type: functional; settings: PC-3, 48 h, read-out: Activity
[4] = tested on: OVCAR-8; experiment: Growth inhibition of human OVCAR8 cells after 48 hrs by sulforhodamine B assay; assay type: functional; settings: OVCAR-8, 48 h
[5] = biological target: DNA topoisomerase 2-alpha (Homo sapiens, UniProt P11388); experiment: Inhibition of human topoisomerase 2alpha-mediated relaxation of supercoiled pBR322 after 1 hr by ethidium bromide staining
DNA topoisomerase 2-alpha, sequence (P11388 whole entry): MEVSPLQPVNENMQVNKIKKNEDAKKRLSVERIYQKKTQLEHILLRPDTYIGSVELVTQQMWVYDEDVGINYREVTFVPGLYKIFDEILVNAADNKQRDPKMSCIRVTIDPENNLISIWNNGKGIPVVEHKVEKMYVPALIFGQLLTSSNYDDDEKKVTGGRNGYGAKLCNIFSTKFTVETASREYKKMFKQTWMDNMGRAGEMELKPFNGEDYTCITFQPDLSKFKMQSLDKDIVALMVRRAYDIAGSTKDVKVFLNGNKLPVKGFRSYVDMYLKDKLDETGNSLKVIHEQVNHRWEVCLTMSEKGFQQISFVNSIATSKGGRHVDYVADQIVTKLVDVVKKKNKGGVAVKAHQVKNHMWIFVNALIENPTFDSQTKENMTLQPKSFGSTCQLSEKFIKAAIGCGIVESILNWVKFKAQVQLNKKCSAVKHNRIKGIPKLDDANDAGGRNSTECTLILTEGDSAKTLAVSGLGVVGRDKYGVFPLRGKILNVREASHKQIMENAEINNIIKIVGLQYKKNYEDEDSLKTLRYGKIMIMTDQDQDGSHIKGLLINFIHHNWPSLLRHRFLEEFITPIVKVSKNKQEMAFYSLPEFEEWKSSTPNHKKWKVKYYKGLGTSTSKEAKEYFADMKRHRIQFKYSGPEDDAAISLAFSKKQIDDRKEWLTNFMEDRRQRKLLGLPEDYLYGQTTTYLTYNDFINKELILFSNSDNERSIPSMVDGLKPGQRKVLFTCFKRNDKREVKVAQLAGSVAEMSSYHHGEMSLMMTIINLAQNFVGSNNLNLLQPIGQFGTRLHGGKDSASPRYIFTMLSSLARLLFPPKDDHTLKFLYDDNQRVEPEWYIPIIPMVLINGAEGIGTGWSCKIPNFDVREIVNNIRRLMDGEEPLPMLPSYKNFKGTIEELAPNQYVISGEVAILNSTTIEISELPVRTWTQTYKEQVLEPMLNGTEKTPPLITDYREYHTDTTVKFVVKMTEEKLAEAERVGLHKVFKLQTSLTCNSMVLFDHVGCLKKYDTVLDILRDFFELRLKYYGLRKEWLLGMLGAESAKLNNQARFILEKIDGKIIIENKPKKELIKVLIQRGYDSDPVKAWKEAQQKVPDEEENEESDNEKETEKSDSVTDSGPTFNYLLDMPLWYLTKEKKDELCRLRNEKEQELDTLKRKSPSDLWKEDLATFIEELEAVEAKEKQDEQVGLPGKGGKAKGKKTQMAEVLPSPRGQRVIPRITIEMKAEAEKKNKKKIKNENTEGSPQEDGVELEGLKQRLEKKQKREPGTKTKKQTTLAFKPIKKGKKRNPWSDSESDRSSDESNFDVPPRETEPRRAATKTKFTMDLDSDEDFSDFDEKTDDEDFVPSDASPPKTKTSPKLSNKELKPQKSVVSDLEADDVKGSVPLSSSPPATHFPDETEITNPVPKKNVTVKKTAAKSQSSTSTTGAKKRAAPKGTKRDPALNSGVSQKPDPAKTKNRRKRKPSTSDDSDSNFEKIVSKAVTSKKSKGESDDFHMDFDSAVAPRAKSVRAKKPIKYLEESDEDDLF

[6] = tested on: HeLa; experiment: Cytotoxicity against human HeLa cells; assay type: functional, cell-based; settings: Homo sapiens, HeLa
[7] = tested on: MCF7; experiment: Cytotoxicity against human MCF7 cells; assay type: functional, cell-based
[8] = tested on: A498; experiment: Growth inhibition of human A498 cells after 48 hrs by sulforhodamine B assay; assay type: functional; settings: A498, 48 h; for CC50: read-out: LC50 (the source's name)
[9] = tested on: HCT-15; experiment: Growth inhibition of human HCT15 cells after 48 hrs by sulforhodamine B assay; assay type: functional; settings: HCT-15, 48 h
[10] = tested on: HT-29; experiment: Growth inhibition of human HT-29 cells assessed as cell growth at 10 uM after 48 hrs by sulforhodamine B assay relative to control; assay type: functional; settings: HT-29, 48 h, read-out: Activity
[11] = tested on: COLO 205; experiment: Growth inhibition of human COLO205 cells assessed as cell growth at 10 uM after 48 hrs by sulforhodamine B assay relative to control; assay type: functional; settings: COLO 205, 48 h, read-out: Activity
[12] = tested on: NCI-H322M; experiment: Growth inhibition of human NCI-H322M cells assessed as cell growth at 10 uM after 48 hrs by sulforhodamine B assay relative to control; assay type: functional; settings: read-out: Activity
[13] = tested on: CAKI-1; experiment: Growth inhibition of human CAKI-1 cells after 48 hrs by sulforhodamine B assay; assay type: functional; settings: CAKI-1, 48 h
[14] = tested on: UACC-257; experiment: Growth inhibition of human UACC257 cells assessed as cell growth at 10 uM after 48 hrs by sulforhodamine B assay relative to control; assay type: functional; settings: UACC-257, 48 h, read-out: Activity
[15] = tested on: SNB-19; experiment: Growth inhibition of human SNB19 cells after 48 hrs by sulforhodamine B assay; assay type: functional; settings: SNB-19, 48 h; for CC50: read-out: LC50 (the source's name)
[16] = tested on: SK-MEL-28; experiment: Growth inhibition of human SK-MEL-28 cells assessed as cell growth at 10 uM after 48 hrs by sulforhodamine B assay relative to control; assay type: functional; settings: SK-MEL-28, 48 h, read-out: Activity
[17] = tested on: NCI-H23; experiment: Growth inhibition of human NCI-H23 cells after 48 hrs by sulforhodamine B assay; assay type: functional; settings: NCI-H23, 48 h
[18] = tested on: OVCAR-4; experiment: Growth inhibition of human OVCAR4 cells after 48 hrs by sulforhodamine B assay; assay type: functional; settings: OVCAR-4, 48 h
[19] = Growth inhibition of human EKVX cells assessed as cell growth at 10 uM after 48 hrs by sulforhodamine B assay relative to control; assay type: functional; settings: read-out: Activity
[20] = tested on: NCI-H522; experiment: Growth inhibition of human NCI-H522 cells assessed as cell growth at 10 uM after 48 hrs by sulforhodamine B assay relative to control; assay type: functional; settings: NCI-H522, 48 h, read-out: Activity
[21] = tested on: HOP-92; experiment: Growth inhibition of human HOP92 cells assessed as cell growth at 10 uM after 48 hrs by sulforhodamine B assay relative to control; assay type: functional; settings: HOP-92, 48 h, read-out: Activity
[22] = read-out: LC50 (the source's name)

SMILES	GI50 [1] [µM]	growth at 10 µM [2] [%]	growth at 10 µM [3] [%]	GI50 [4] [µM]	TGI [4] [µM]	GI50 [8] [µM]	TGI [8] [µM]	CC50 [8] [µM]	GI50 [9] [µM]	LC50 [9] [µM]	TGI [9] [µM]	growth at 10 µM [10] [%]	growth at 10 µM [11] [%]	growth at 10 µM [12] [%]	GI50 [13] [µM]	LC50 [13] [µM]	TGI [13] [µM]	growth at 10 µM [14] [%]	GI50 [15] [µM]	TGI [15] [µM]	further results
CN(C)CCNc1nc2c(c(=N)n1-c1ccccc1)c(=S)n(-c1ccccc1)c(=S)n2-c1ccccc1	0.4	-8.26	31	4.1	15.7	2.4	6.8	28.1	1.4	17.7	4.5	-35.7	6.65	58.5	3.6	72	17.6	-74.6	4.9	19	LC50 (concentration killing 50% of cells) [1]: 6.8 µM; TGI [1]: 2.2 µM; CC50 [4, 22]: 58.7 µM; IC50 [5]: > 100 µM; IC50 [6]: 12.6 µM; IC50 [7]: 16 µM; CC50 [15]: 50 µM; growth at 10 µM [16]: -100%; GI50 [17]: 16.8 µM; TGI [17]: 42.1 µM; GI50 [18]: 3.1 µM; TGI [18]: 10.8 µM; growth at 10 µM [19]: 39.8%; growth at 10 µM [20]: 3.16%
CCCCN(CCCC)CCCNc1nc2c(c(=N)n1-c1ccccc1)c(=S)n(-c1ccccc1)c(=S)n2-c1ccccc1	0.2	-78.4	-70.8	0.9	2.7	1.1	2.4	5.2	0.3	3.4	1.1	-63.3	-74.1	-57.8	0.1	3.1	0.8	-73.1	1.2	2.7	CC50 [15]: 5.8 µM; growth at 10 µM [21]: -66.9%; growth at 10 µM [16]: -100%; GI50 [17]: 1.6 µM; LC50 (concentration killing 50% of cells) [17]: 8.4 µM; TGI [17]: 3.4 µM; GI50 [18]: 0.6 µM; TGI [18]: 1.9 µM; CC50 [18, 22]: 4.4 µM; growth at 10 µM [19]: -74.2%; growth at 10 µM [20]: -54.8%
